Paper PMC6557261 (Cell chemical biology, 2019)

How the values were obtained:
[1] = biological target: T1, peroxiredoxin 2 (Prx2) (Homo sapiens, UniProt P32119); test: glutamine synthetase protection assay with recombinant Prx2; assay type: biochemical
T1 sequence (P32119 2-198): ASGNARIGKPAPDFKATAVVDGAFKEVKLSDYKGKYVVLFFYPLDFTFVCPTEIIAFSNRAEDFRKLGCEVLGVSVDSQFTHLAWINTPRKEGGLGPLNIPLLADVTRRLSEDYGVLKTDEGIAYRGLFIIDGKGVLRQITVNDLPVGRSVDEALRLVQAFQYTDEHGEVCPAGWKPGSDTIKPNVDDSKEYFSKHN

[2] = biological target: T2, peroxiredoxin 1 (Prx1) (Homo sapiens, UniProt Q06830); test: glutamine synthetase protection assay with recombinant Prx1; assay type: biochemical
T2 sequence (Q06830 2-199): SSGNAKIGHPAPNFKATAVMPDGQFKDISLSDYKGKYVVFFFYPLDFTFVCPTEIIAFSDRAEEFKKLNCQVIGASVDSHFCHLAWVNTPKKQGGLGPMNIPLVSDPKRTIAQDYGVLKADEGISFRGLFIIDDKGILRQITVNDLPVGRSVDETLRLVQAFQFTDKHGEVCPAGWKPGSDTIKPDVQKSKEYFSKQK

IC50 [1]: 4.2 µM
IC50 [2]: 200 nM
Compound: CCC[C@H]1O[C@@H]2CC(=O)O[C@@H]2C2=C1C(=O)c1c(O)cccc1C2=O [FB, frenolicin B]
